Reference: US20160058735A1, “METHODS OF TREATING HYPERHIDROSIS” (Dermira, Inc., priority 2014, published 2016)

Tests used:
[1] = tested on: patients with severe primary axillary hyperhidrosis; test: Phase 2a clinical trial: disease severity by Hyperhidrosis Disease Severity Scale (HDSS); assay type: in vivo, human; details: Formulation A, 2% and 4% pooled; first on-treatment assessment, about one week
Procedure: (§1) The completed Phase 2a clinical trial was a randomized, double-blind study in 38 patients with severe primary axillary hyperhidrosis.
(§2) Patients were instructed to apply the study product once daily for four weeks using wipes saturated with either the topical formulation of the reference agent or vehicle only. Efficacy was evaluated based on axillary sweat production and disease severity. Assessments were conducted approximately weekly during the four-week treatment period and two weeks after the end of this treatment period. Disease severity was measured using a widely-used patient-reported outcome tool called the Hyperhidrosis Disease Severity Scale, or HDSS, wherein patients rate the severity of their disease on a four-point scale. Patients who rate the severity of their disease as a three or a four on the HDSS are considered to have severe disease, while those who rate it as one or two are considered to have mild or moderate disease. All 38 patients enrolled in the clinical trial rated the severity of their disease as a three or a four on the HDSS prior to the start of treatment. Trial inclusion criteria required that prior to the start of treatment, all patients produce at least 50 mg of sweat in each axilla over a five-minute period.

[2] = tested on: patients with severe primary axillary hyperhidrosis; test: Study DRM04-HH01 (Phase 2b): adverse events
Procedure: Assessments were conducted approximately weekly during the four-week treatment period and the two-week period after the end of this treatment period. […] Trial inclusion criteria required that prior to the start of treatment, all patients produce at least 50 mg of sweat in each axilla over a five-minute period.

[3] = tested on: patients with severe primary axillary hyperhidrosis; test: Phase 2a clinical trial: axillary sweat production; assay type: in vivo, human
Procedure: as §1
as §2, with “Efficacy” for “Patients were instructed to apply the study product once daily for four weeks using wipes saturated with either the topical formulation of the reference agent or vehicle only. Efficacy”, “All 38 patients enrolled in the clinical trial rated the severity of their disease as a three or a four on the HDSS prior to the start of treatment.” left out

C[N+]1(C)CCC(OC(=O)C(O)(c2ccccc2)C2CCCC2)C1.[Br-] (stereo not drawn) [reference agent, threo-glycopyrronium bromide]
patients reporting improvement in disease severity (HDSS) from severe to mild or moderate [1]: Nine of 12
patients who withdrew from the study due to adverse events ([2]; 1% cohort): 2.6%
patients who withdrew from the study due to adverse events ([2]; 2% cohort): 5.0%
patients who withdrew from the study due to adverse events ([2]; 3% cohort): 2.5%
patients who withdrew from the study due to adverse events ([2]; 4% cohort): 20.0%
most common TEAEs ([2]; in vivo): dry mouth, upper respiratory tract infection, dry skin and blurred vision
treatment-related serious adverse events ([2]; in vivo): No treatment-related serious adverse events were reported
sweat production on average lower than at the start of therapy ([3]; Formulation A, nine patients, end of four-week treatment period): 61%
reversibility of effect on sweating and disease severity ([3]; two weeks following cessation of therapy): appeared to be reversible
